In ChEMBL document CHEMBL1201862, “PubChem BioAssay data set” (2004):
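Compound exposure: 48 hours, 5 concentrations, 96-well plates. GI50 is the concentration that inhibits growth by half.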 Active and inactive are the calls of the source. Rule as the data show it: active = GI50 up to about 1.1 µM and inactive = higher.

How the values were obtained:
Experiment in all cases: DTP human tumour cell line panel, 48 h
XF498 = test system: XF498
LXFL 529 = test system: LXFL 529
RXF 631 = test system: RXF 631
DMS-273 = test system: DMS-273
SNB-78 = test system: SNB-78
HOP-18 = test system: HOP-18
M19-MEL = test system: M19-MEL
DMS-114 = test system: DMS-114

Measured: GI50

COc1ccc(COC2CC(OC)OC(C)C2OC(=O)c2ccccc2)cc1 (stereo not given)
inactive: XF498 21.7 µM | LXFL 529 26.5 µM | RXF 631 30.7 µM | DMS-273 39.4 µM | SNB-78 41.7 µM | HOP-18 > 100 µM | M19-MEL 34.5 µM | DMS-114 26 µM

Cn1cc(C(=O)c2ccccc2)cc(C(=O)c2ccccc2)c1=O
inactive: XF498 > 100 µM | LXFL 529 > 100 µM | RXF 631 > 100 µM | DMS-273 > 100 µM | SNB-78 > 100 µM | M19-MEL > 100 µM | DMS-114 > 100 µM

CCC1CN2CCc3cc(OC)c(OC)cc3C2CC1CC1c2cc(OC)c(OC)cc2CCN1C(=O)CNC(=O)OC(C)(C)C (stereo not given)
inactive: XF498 7.53 µM | LXFL 529 10.9 µM | RXF 631 30.3 µM | DMS-273 12 µM | SNB-78 20.5 µM | HOP-18 23.3 µM | M19-MEL 16.3 µM | DMS-114 3.8 µM

Nc1ncn([C@@H]2C=C(CO)C(O)C2O)c(=O)n1 (stereo not given in full)
inactive: XF498 > 100 µM | LXFL 529 75 µM | RXF 631 > 100 µM | DMS-273 > 100 µM | SNB-78 61.5 µM | HOP-18 > 100 µM | M19-MEL > 100 µM

O=S(=O)(C/C(=N\O)c1ccccc1)c1ccccc1
inactive: XF498 59.3 µM | LXFL 529 > 100 µM | RXF 631 > 100 µM | DMS-273 > 100 µM | SNB-78 > 100 µM | HOP-18 > 100 µM | M19-MEL > 100 µM

O=C1OC(=O)c2c1c(-c1ccccc1)nc1ccccc21
inactive: XF498 > 100 µM | LXFL 529 > 100 µM | RXF 631 > 100 µM | DMS-273 > 100 µM | SNB-78 > 100 µM | M19-MEL > 100 µM | DMS-114 > 100 µM

O=C(c1ccccc1)n1cc(/C=C/[N+](=O)[O-])c2ccccc21
inactive: XF498 29.8 µM | LXFL 529 18.5 µM | RXF 631 17.3 µM | DMS-273 25.1 µM | SNB-78 30.9 µM | HOP-18 > 100 µM | M19-MEL 20.8 µM | DMS-114 21.8 µM

COC(=O)c1sc(=NC(=S)N2CCCCC2)sc1C(=O)OC
inactive: LXFL 529 > 100 µM | RXF 631 62.7 µM | DMS-273 18.2 µM | SNB-78 > 100 µM | HOP-18 > 100 µM | M19-MEL 5.69 µM | DMS-114 62.7 µM

CCC12CCCN(Cc3ccccc3)C1c1c(n(C)c3ccccc13)[C@H](C(=O)OC)C2 (stereo not given in full)
inactive: XF498 201 µM | LXFL 529 > 239 µM | RXF 631 > 239 µM | DMS-273 > 239 µM | M19-MEL 130 µM | DMS-114 226 µM
